Results reported in patent publication US20260256793A1, “ALTERATION OF F-BOX AND WD REPEAT DOMAIN CONTAINING 7 (FBXW7) GENE AS A PREDICTIVE BIOMARKER FOR TREATING CANCER WITH WEE1 INHIBITORS” (Zeno Management, Inc., priority 2023, published 2026).

How the values were obtained:
[1] = test system: solid tumor patients (HGSOC, USC, endometrial, colorectal, peritoneum cancer), FBXW7-mutated or wild-type; experiment: Clinical outcome of Azenosertib monotherapy by FBXW7 mutational status (composite cohort of 356 patients); assay type: in vivo, human; details: daily dose at least 300 mg; for Objective Response Rate (ORR): continuous or intermittent schedule, p<0.02, FIG. 9A; for target lesion size reduction (median): p<0.05, FIG. 9B
Description: FIG. 9B is a waterfall plot of the tumor size change in FBXW7-mutated or wild-type human subjects.
The predictive value of FBXW7 was investigated in a composite cohort of 356 patients treated with a daily dose of at least 300 mg of Azenosertib monotherapy on a continuous dosing schedule or an intermittent dosing schedule (e.g., 5 days on/2 days off, 4 days on/3 days off) and profiled with high-throughput DNA sequencing. Specifically, this composite cohort of patients was treated with a daily dose of 300 mg, or 350 mg, or 400 mg, or 450 mg of Azenosertib monotherapy on a continuous dosing schedule (i.e., QD, 7 days a week without any intermission), a daily dose of 300 mg, or 350 mg, or 400 mg, or 450 mg, or of 500 mg of Azenosertib monotherapy on an intermittent 5 days on/2 days off or 4 days on/3 days off schedule). The source of mutational status was a combination of local (reports from clinical sites) or central testing from either tumor or cell-free DNA. The mutational status was determined as mutated when at least one of the reports reported a pathogenic mutation and unmutated (wild-type) when all reports covering the FBXW7 gene were negative. The cohort investigated consists of patients diagnosed with high-grade serous ovarian carcinoma or HGSOC (N=211), uterine serous carcinoma or USC (N=57) or other solid tumor cancers including endometrial cancer, colorectal cancer, and peritoneum cancer […]. The patients mutated for FBXW7 (N=17-including […], 7 USC, 2 endometrial and 3 colorectal), were more likely to respond to Azenosertib monotherapy (Objective Response Rate or ORR=41% (7/17) for FBXW7-mutated patients vs. 16% (53/339) for FBXW7-wild-type patients; p<0.02—FIG. 9A [BOR=Best Overall Response; CR=Complete Response; PR—Partial Response; uPR=Unconfirmed Partial Response; SD=Stable Disease; PD=Progressive Disease).

[2] = test system: Parental DLD-1 colorectal cancer cells; experiment: Western blot (Jess) of WEE1, pCDK1, replication stress, DNA damage and apoptosis markers after Azenosertib treatment, parental cells; assay type: cell-based
Description: (§1) FIG. 8 is a Western Blot image showing levels of FBXW7, WEE1 kinase, Cyclin E1, and other replication stress, DNA damage, apoptosis markers in DLD-1 parental and DLD-1 FBXW7-knockout colorectal cancer cells treated with DMSO (negative control) and 250 nM, 1 μM, and 10 µM of Azenosertib for 8 hours, 24 hours, or 48 hours.
(§2) Parental DLD-1 colorectal cancer cells or FBXW7 knockout (FBXW7-KO) DLD-1 cells (Creative Biogene, Cat No. CSC-RT0018, Lot No. 081723ZYX) were cultured in RPMI 1640 medium (ATCC modification) (Giboco) supplemented with 10% FBS (Gibco) and 1% penicillin-streptomycin (Gibco). Cells were maintained at 37° C. in an atmosphere containing 5% CO2.
(§3) The cultured cells were seeded at optimal density in 6-well plates, allowed to adhere overnight, and then treated with Azenosertib (250 nM, 1 μM, or 10 μM), with DMSO treatment as a negative control. After 8, 24, and 48 hours of drug exposure, cells were harvested, rinsed with PBS, lysed with cold RIPA buffer (Sigma) containing protease and phosphatase inhibitors for 15 minutes, and centrifuged at 4° C., 15,000 rpm for 15 minutes. Protein concentrations were measured using the Pierce BCA Protein Assay kit (Thermo Fisher). Jess™ plates were loaded and run according to the manufacturer's instructions (Bio-Techne). Primary antibodies anti-FBXW7 and anti-Cyclin E1 were purchased from Abcam, anti-phospho-H3, anti-Vinculin, anti-γH2AX, anti-phospho-CDK1, anti-phsopho-Chk1, anti-cleaved caspase 3, anti-Wee1, and anti-CDK1 were purchased from Cell Signaling Technology.

[3] = test system: FBXW7 knockout (FBXW7-KO) DLD-1 cells; experiment: Western blot (Jess) of WEE1, pCDK1, replication stress, DNA damage and apoptosis markers after Azenosertib treatment, FBXW7 knockout cells; assay type: cell-based
Description: as §1, §2, §3

[4] = 250 nM, 1 μM, 10 μM, 8, 24, 48 hours, vs DMSO, FIG. 8
[5] = FBXW7-KO DLD-1, 250 nM, 1 μM, 10 μM, 8, 24, 48 hours, vs DMSO, FIG. 8
[6] = FBXW7-KO DLD-1, 10 μM, more significant DNA damage compared to parental cell line

C=CCn1c(=O)c2cnc(Nc3ccc(N4CCN(C)CC4)cc3)nc2n1-c1ccc2c(n1)[C@@](O)(CC)CC2 [Azenosertib]
Objective Response Rate (ORR) ([1]; FBXW7-mutated patients (7/17)): 41%
target lesion size reduction (median) ([1]; FBXW7-mutated patients): −41%
Objective Response Rate (ORR) ([1]; FBXW7-wild-type patients (53/339)): 16%
target lesion size reduction (median) ([1]; second-named group, FBXW7-wild-type patients): −8%
WEE1 levels [2, 4]: dose-dependent decrease
phospho-CDK1 (pCDK1) levels [2, 4]: dose-dependent decrease
pCDK1 level ([2]; 10 μM, 48 hours): decreasing significantly
WEE1 levels [3, 5]: dose-dependent decrease
phospho-CDK1 (pCDK1) levels [3, 5]: dose-dependent decrease
pCDK1 level ([3]; FBXW7-KO DLD-1, 10 μM, 48 hours): decreasing significantly
gamma-H2AX (γH2AX) levels (DNA damage) [3, 6]: increase
phospho-Chk1 (pChk1) levels (DNA damage) [3, 6]: increase
cleaved caspase 3 levels (apoptosis) ([3]; FBXW7-KO DLD-1, e.g. 10 µM at 24 hours and 48 hours, compared to parental cell line): increase
sensitivity to treatment with Azenosertib ([3]; FBXW7-KO cells compared to the parental cell line): more sensitive
